# According to patent US10689367B2, “Triazole pyridyl compounds as agonists of the APJ receptor” (AMGEN INC., priority 2016, dated 2020):
# Target: human APJ receptor (Homo sapiens (Human), UniProt P35414)
# Experiment: [35S]GTPγS binding assay on membranes from CHO cells stably expressing human APJ receptor
# Assay type: biochemical
# Conditions: membranes of CHO cells stably expressing human APJ receptor, read-out: Activity hAPJ SPA EC50 IP
# Procedure, shortened: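 [35S]GTPγS binding measured on membranes from CHO cells stably expressing FLAG-tagged human APJ, with GDP, MgCl2 and NaCl levels optimized beforehand. Incubation 90 min at RT, imager read-out; EC50 from non-linear regression, averaged over several independent experiments.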
# Sequence of human APJ receptor (P35414 whole entry): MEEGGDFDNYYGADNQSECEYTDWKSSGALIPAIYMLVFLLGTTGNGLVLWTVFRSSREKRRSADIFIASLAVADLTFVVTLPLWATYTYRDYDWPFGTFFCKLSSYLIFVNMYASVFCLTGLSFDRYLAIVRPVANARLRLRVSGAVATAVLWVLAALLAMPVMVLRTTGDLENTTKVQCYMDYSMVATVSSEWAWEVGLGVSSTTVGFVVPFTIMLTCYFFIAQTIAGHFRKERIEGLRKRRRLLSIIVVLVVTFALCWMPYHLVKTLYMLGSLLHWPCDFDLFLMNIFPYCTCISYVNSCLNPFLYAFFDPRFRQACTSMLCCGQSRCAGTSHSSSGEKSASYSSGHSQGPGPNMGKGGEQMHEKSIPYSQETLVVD
row,Compound,EC50 [µM]
1,"COc1cccc(-c2nnc(NS(=O)(=O)[C@@H](C)[C@@H](OC(C)C)c3ncc(C)cn3)n2[C@H](C)[C@@H]2CCCCO2)n1 (single isomer, unassigned) [Example 322.0]",0.0012
2,"CCc1noc(C)c1Cn1c(NS(=O)(=O)[C@@H](C)[C@H](C)c2ncc(Cl)cn2)nnc1-c1cccc(OC)n1 [Example 193.0, (2S,3R)-3-(5-chloro-2-pyrimidinyl)-N-(4-((3-ethyl-5-methyl-1,2-oxazol-4-yl)methyl)-5-(6-methoxy-2-pyridinyl)-4H-1,2,4-triazol-3-yl)-2-butanesulfonamide]",0.43
3,"COCC(COC)n1c(NS(=O)(=O)[C@@H](C)[C@H](C)c2cnc(C)cn2)nnc1-c1cccnc1 [Example 17.0, (2S,3R)-N-(4-(1,3-dimethoxy-2-propanyl)-5-(3-pyridinyl)-4H-1,2,4-triazol-3-yl)-3-(5-methyl-2-pyrazinyl)-2-butanesulfonamide]",0.38
4,"COc1cccc(-c2nnc(NS(=O)(=O)[C@@H](C)[C@H](OC)c3ncc(Cl)cn3)n2CC2CCO2)n1 (stereo partly drawn) [Example 137.0, (1R,2S)-1-(5-chloropyrimidin-2-yl)-1-methoxy-N-(5-(6-methoxypyridin-2-yl)-4-(oxetan-2-ylmethyl)-4H-1,2,4-triazol-3-yl)propane-2-sulfonamide]",0.022
5,"(1R,2S)-1-(5-Chloropyrimidin-2-yl)-1-methoxy-N-(4-((1R,2R)-2-methoxycyclobutyl)-5-(6-methoxypyridin-2-yl)-4H-1,2,4-triazol-3-yl)propane-2-sulfonamide and (1R,2S)-1-(5-chloropyrimidin-2-yl)-1-methoxy-N-(4-((1S,2S)-2-methoxycyclobutyl)-5-(6-methoxypyridin-2-yl)-4H-1,2,4-triazol-3-yl)propane-2-sulfonamide [Example 155.0]",0.0031
6,"COc1cccc(-c2nnc(NS(=O)(=O)[C@@H](C)[C@H](OC)c3ncc(Cl)cn3)n2[C@@H]2CC23CC3)n1 (single isomer, unassigned) [Example 91.0]",0.038
7,"COc1cccc(-c2nnc(NS(=O)(=O)[C@@H](C)[C@H](OC)c3ncc(Cl)cn3)n2CCc2cccnc2)n1 [Example 284.0, (1R,2S)-1-(5-chloropyrimidin-2-yl)-1-methoxy-N-(5-(6-methoxypyridin-2-yl)-4-(2-(pyridin-3-yl)ethyl)-4H-1,2,4-triazol-3-yl)propane-2-sulfonamide]",0.12
8,"COc1cccc(-c2nnc(NS(=O)(=O)[C@@H](C)[C@H](OC)c3ncc(Cl)cn3)n2[C@H](C)c2cc(F)cc(F)c2)n1 (single isomer, unassigned) [Example 340.0, (1R,2S)-1-(5-chloropyrimidin-2-yl)-N-(4-((R)-1-(3,5-difluorophenyl)ethyl)-5-(6-methoxypyridin-2-yl)-4H-1,2,4-triazol-3-yl)-1-methoxypropane-2-sulfonamide or (1R,2S)-1-(5-chloropyrimidin-2-yl)-N-(4-((S)-1-(3,5-difluorophenyl)ethyl)-5-(6-methoxypyridin-2-yl)-4H-1,2,4-triazol-3-yl)-1-methoxypropane-2-sulfonamide]",0.00018
9,"CO[C@H](c1ncc(Cl)cn1)[C@H](C)S(=O)(=O)Nc1nnc(-c2ccccn2)n1C(C)C [Example 136.0, (1R,2S)-1-(5-chloro-2-pyrimidinyl)-1-methoxy-N-(4-(2-propanyl)-5-(2-pyridinyl)-4H-1,2,4-triazol-3-yl)-2-propanesulfonamide]",0.057
10,"COc1cccc(-c2nnc(NS(=O)(=O)[C@@H](C)[C@H](C)c3ncc(Cl)cn3)n2[C@@H](C)c2ncc(C)o2)n1 (single isomer, unassigned) [Example 258.0, (2S,3R)-3-(5-chloro-2-pyrimidinyl)-N-(5-(6-methoxy-2-pyridinyl)-4-((1S)-1-(5-methyl-1,3-oxazol-2-yl)ethyl)-4H-1,2,4-triazol-3-yl)-2-butanesulfonamide or (2S,3R)-3-(5-chloro-2-pyrimidinyl)-N-(5-(6-methoxy-2-pyridinyl)-4-((1R)-1-(5-methyl-1,3-oxazol-2-yl)ethyl)-4H-1,2,4-triazol-3-yl)-2-butanesulfonamide]",0.00088
